In publication PMC9388906, “Dual inhibition of the Echinococcus multilocularis energy metabolism” (Frontiers in Veterinary Science, 2022):
Read-outs that look alike come from different tables or passages of the source.

How the values were obtained:
[1] = tested on: E. multilocularis metacestodes (isolate H95); assay: PGI assay (damage marker release), metacestodes, isolate H95; type: cell-based, Echinococcus multilocularis; details: isolate H95, 5 days
Protocol: To assess the in vitro efficacy of ELQs against E. multilocularis, (a) the damage-marker phosphoglucose isomerase (PGI) assay was applied against metacestodes, and (b) the germinal layer (GL) cell viability assay was applied to measure effects on isolated GL cells. Both assays are described in more detail below. The drug testing strategy was as follows: PGI assay was first conducted for overview screening at 10 μM with the parasite isolates H95 and Sval. The GL cell viability assay was performed at 0.1 μM with both isolates H95 and Sval.
The PGI assay measures the amount of PGI that metacestodes release into the medium when damaged ([17], [32]). The purification and in vitro drug incubation of E. multilocularis metacestodes was conducted according to Stadelmann et al. ([32]). In short, cultures were applied for in vitro drug testing at the age of 6-8 weeks. E. multilocularis metacestodes were therefore purified by the addition of 2% saccharose and washed extensively with PBS. Purified metacestodes were suspended 1:3 with DMEM (without phenol red, supplemented with 100 U/mL penicillin, 100 μg/mL streptomycin) and distributed in 48-well plates (1 mL/well, thus 300 μL pure metacestode vesicles per well). […] The corresponding DMSO concentration was used as negative control and Tx-100 (0.1% final concentration) was used for total damage (positive control). […] After 5 days, relative PGI activities were measured and calculated as percentage of the Tx-100 control as described previously in Rufener et al. ([17]). They were calculated as mean values and standard deviations for each triplicate. […] EC50 measurements were performed twice, and averages and standard deviations of these repeated tests are given.

[2] = tested on: Reuber rat hepatoma (Rh) cells; assay: Mammalian cell toxicity, Alamar Blue assay; type: cell-based; details: Alamar blue, 5 days, range tested 30–0.23 μM, mean (SD) of two tests
Protocol: Compounds were added in a serial dilution (30–0.23 μM, 1:2 dilution steps) and in triplicates. Plates were incubated at 37°C, 5% CO2 and humid atmosphere for 5 days. Resazurin was added to a final concentration of 10 mg/L to each well, and fluorescence measured at 530 nm on an Enspire multilabel plate reader over 3 h. By using Microsoft Office Excel 2010 and a logit-log transformation of the relative growth, IC50 values were calculated. The test was performed twice for each compound, and respective averages and standard deviations are given.

[3] = tested on: E. multilocularis metacestodes; assay: PGI assay, single and combination treatment under normoxic and anaerobic conditions; type: cell-based, Echinococcus multilocularis; details: 5 days
Protocol: The PGI assay measures the amount of PGI that metacestodes release into the medium when damaged ([17], [32]). The purification and in vitro drug incubation of E. multilocularis metacestodes was conducted according to Stadelmann et al. ([32]). In short, cultures were applied for in vitro drug testing at the age of 6-8 weeks. E. multilocularis metacestodes were therefore purified by the addition of 2% saccharose and washed extensively with PBS. Purified metacestodes were suspended 1:3 with DMEM (without phenol red, supplemented with 100 U/mL penicillin, 100 μg/mL streptomycin) and distributed in 48-well plates (1 mL/well, thus 300 μL pure metacestode vesicles per well). […] The corresponding DMSO concentration was used as negative control and Tx-100 (0.1% final concentration) was used for total damage (positive control). […] After 5 days, relative PGI activities were measured and calculated as percentage of the Tx-100 control as described previously in Rufener et al. ([17]). They were calculated as mean values and standard deviations for each triplicate. EC50 calculations were calculated based on logit-log transformed values in Microsoft Office Excel 2010. EC50 measurements were performed twice, and averages and standard deviations of these repeated tests are given.
For double inhibition of the mitochondrial energy pathways of E. multilocularis, quinazoline as an inhibitor of the anaerobic MD ([29]) was applied in combination with ELQ-400 as an inhibitor of the ETC. Both compounds were tested either alone or in combination at 10 μM with the above-described PGI assay for 5 days for their activity against E. multilocularis metacestodes. PGI assays were done in triplicates and two times independently. […] Results of the assays were calculated as mean values and standard deviations for each biological triplicate were calculated as relative percentage to the Tx-100 control. To assess direct effects on the MD, succinate levels were measured in the supernatants of the PGI assay, as described below. […]

Cc1[nH]c2cc(F)cc(F)c2c(=O)c1-c1ccc(Oc2ccc(OC(F)(F)F)cc2)cc1 [ELQ-400]
Metacestodes, PGI assay, relative to positive control Tx-100 ([1]; 10 μM, normoxic, mean (SD) of triplicates, active if >20%): 21.4 (2.5) % | EC50 ([1]; PGI assay, range tested 30–0.12 μM, mean (SD) of two tests, read-out: EC50 metacestodes): 1.06 µM | IC50 ([2]; confluent Rh cells, read-out: IC50 Rh confluent): > 30 µM | IC50 ([2]; preconfluent Rh cells, read-out: IC50 Rh preconfluent): 1.46 µM | PGI release of metacestodes relative to Tx-100 ([3]; 10 μM each, anaerobic (0% O2)): significantly reduced | PGI release of metacestodes relative to Tx-100 ([3]; 10 μM, normoxic (21% O2)): active
